How the values were obtained:
[1] = tested on: Cricetinae gen. sp.; test: Compound was tested for its ability to inhibit the intestinal absorption of [3H]cholesterol in cholesterol-fed hamsters at 5 mg/kg dose; format: functional, Cricetulus griseus
[2] = tested on: Cricetinae gen. sp.; test: Compound was tested for its ability to inhibit the intestinal absorption of [3H]cholesterol in cholesterol-fed hamsters at 100 mg/kg dose; format: functional, Cricetulus griseus
[3] = tested on: Cricetinae gen. sp.; test: Compound was tested for its ability to inhibit the intestinal absorption of [3H]cholesterol in cholesterol-fed hamsters at 10 mg/kg dose; format: functional, Cricetulus griseus
[4] = tested on: Cricetinae gen. sp.; test: Ability to inhibit the intestinal absorption of [3H]cholesterol in cholesterol-fed hamsters; format: functional
[5] = tested on: Cricetinae gen. sp.; test: Compound was tested for its ability to inhibit the intestinal absorption of [3H]cholesterol in cholesterol-fed hamsters at 200 mg/kg dose; format: functional, Cricetulus griseus

SMILES | ED50 [4] [mg/kg] | also measured
C[C@@H]1CC[C@@]2(OC1)OC1CC3C4CC[C@H]5C[C@@H](O[C@@H]6O[C@@H](COC(=O)Nc7ccc(Cl)cc7)[C@@H](O[C@@H]7O[C@@H](CO)[C@@H](O)[C@H](O)[C@@H]7O)[C@H](O)[C@@H]6O)CC[C@]5(C)C4C(=O)C[C@]3(C)C1[C@@H]2C (stereo partly specified) |  | inhibition in vivo at 5 mg/kg [1]: 37%
C[C@@H]1CC[C@@]2(OC1)OC1CC3C4CC[C@H]5C[C@@H](O[C@@H]6O[C@@H](CO)[C@@H](O[C@@H]7O[C@@H](COC(=O)Nc8c(Cl)cccc8Cl)[C@@H](OC(=O)Nc8c(Cl)cccc8Cl)[C@H](O)[C@@H]7O)[C@H](O)[C@@H]6O)CC[C@]5(C)C4C(=O)C[C@]3(C)C1[C@@H]2C (stereo partly specified) |  | inhibition in vivo at 5 mg/kg [1]: 40%
C[C@]12CC[C@@H]3c4ccc(O[C@@H]5O[C@@H](CO)[C@@H](O[C@@H]6O[C@@H](CO)[C@@H](O)[C@H](O)[C@@H]6O)[C@H](O)[C@@H]5O)cc4CC[C@H]3[C@@H]1CCC2=O |  | inhibition in vivo at 100 mg/kg [2]: 14%
C[C@@H]1CC[C@@]2(OC1)OC1C[C@H]3[C@@H]4CC[C@H]5C[C@@H](O[C@@H]6O[C@@H](CO)[C@@H](O[C@@H]7O[C@@H](CO)[C@@H](O)[C@H](O)[C@@H]7O)[C@H](O)[C@@H]6O)CC[C@]5(C)[C@H]4C(=O)C[C@]3(C)C1[C@@H]2C (stereo partly specified) |  | inhibition in vivo at 10 mg/kg [3]: 23%
CCOCOC[C@@H]1O[C@@H](O[C@H]2[C@H](O)[C@H](O)[C@H](O[C@H]3CC[C@]4(C)C5C(=O)C[C@@]6(C)C(CC7O[C@]8(CC[C@@H](C)CO8)[C@@H](C)C76)C5CC[C@H]4C3)O[C@H]2COCOCC)[C@@H](O)[C@@H](O)[C@@H]1O (stereo partly specified) | 3 | 
CCOC(=O)CNC(=O)OC[C@@H]1O[C@@H](O[C@H]2[C@H](O)[C@H](O)[C@H](O[C@H]3CC[C@]4(C)C5C(=O)C[C@@]6(C)C(CC7O[C@]8(CC[C@@H](C)CO8)[C@@H](C)C76)C5CC[C@H]4C3)O[C@H]2CO)[C@@H](O)[C@@H](O)[C@@H]1OC(=O)NCC(=O)OCC (stereo partly specified) | 0.6 | 
C[C@@H]1CC[C@@]2(OC1)O[C@H]1C[C@H]3[C@@H]4CC[C@H]5C[C@@H](O[C@@H]6O[C@@H](CO)[C@@H](O[C@@H]7O[C@@H](CO)[C@@H](O)[C@H](O)[C@@H]7O)[C@H](O)[C@@H]6O)CC[C@]5(C)[C@H]4CC(=O)[C@]3(C)[C@H]1[C@@H]2C [CELLOBIOSYL HECOGENIN] | 10 | 
C[C@@]12CCC[C@H]1[C@@H]1CC[C@H]3C[C@@H](O[C@@H]4O[C@@H](CO)[C@@H](O[C@@H]5O[C@@H](CO)[C@@H](O)[C@H](O)[C@@H]5O)[C@H](O)[C@@H]4O)CC[C@]3(C)[C@H]1CC2 |  | inhibition in vivo at 200 mg/kg [5]: 37%
C[C@@H]1CC[C@@]2(OC1)O[C@H]1C[C@H]3[C@@H]4CC[C@H]5C[C@@H](O[C@@H]6O[C@H](CO)[C@H](O)[C@H](O)[C@H]6O)CC[C@]5(C)[C@H]4C(=O)C[C@]3(C)[C@H]1[C@@H]2C | 12 | 
C[C@@H]1CC[C@@]2(OC1)OC1CC3C4CC[C@H]5C[C@@H](O[C@@H]6O[C@@H](CO)[C@@H](O[C@@H]7O[C@@H](COC(=O)Nc8ccc(F)cc8F)[C@@H](O)[C@H](O)[C@@H]7O)[C@H](O)[C@@H]6O)CC[C@]5(C)C4C(=O)C[C@]3(C)C1[C@@H]2C (stereo partly specified) | 0.25 | 
C[C@@H]1CC[C@@]2(OC1)OC1CC3C4CC[C@H]5C[C@@H](O[C@@H]6O[C@@H](CO)[C@@H](O[C@@H]7O[C@@H](COC(=O)Nc8c(Cl)cccc8Cl)[C@@H](O)[C@H](O)[C@@H]7O)[C@H](O)[C@@H]6O)CC[C@]5(C)C4C(=O)C[C@]3(C)C1[C@@H]2C (stereo partly specified) | 0.2 | 
